For the data set the following is noted: 101.33 kPa, Liquid.

Usually mass density stands for the mass of a sample divided by its volume.

Numbers after ± are expanded uncertainties.

Turning to `Oc1ccccc1` [phenol], the mass density (313.15 K) is given as 1058.3 ± 0.35 kg/m3.

For the compound `Cc1ccc(O)cc1` [4-methylphenol], the mass density (313.15 K) is 1018.8 ± 0.27 kg/m3. Consider `Cc1ccccc1O` [2-methylphenol], for which, where the note is “308.15 K”, the mass density is listed as 1032.73 ± 0.61 kg/m3.

For `CCc1ccccc1` [ethylbenzene], the mass density (298.15 K) was 862.59 ± 0.3 kg/m3.

As to `Cc1cccc(O)c1` [3-methylphenol], the mass density (293.15 K) is 1033.85 ± 0.28 kg/m3.

On to `Cc1ccccc1` [toluene], for which, where the note is “293.15 K”, the mass density turned out to be 866.78 ± 0.31 kg/m3.

For the origin of these results see the NIST ThermoML archive (doi:10.1021/je100069q).
